According to patent publication US20030138935A1, “Selective deactivation of yeast in corn wet milling process slurries” (priority 2002, published 2003):
Values joined by “and” are separate entries in the source; they are usually repeats but may differ in a detail not shown here. Equal values may be shown once.

Legend:
yeast and mold = test: Pour-plate culture on Potato-Dextrose Agar (PDA); type: cell-based; conditions: test concentrations from 10-50 ppm; 4 hour and 24 hour incubations
Procedure: (§1) All tests were conducted using heavy […] samples provided by a major U.S. corn wet milling facility. To confirm the concept that octanoic acid is selective in killing only yeast but not desirable bacteria, microbiological activity was assessed by examining separate culture plates prepared using two different agars. Plates prepared using Potato-Dextrose Agar (PDA) were used to assess the fate of yeast in the present of octanoic acid, as PDA is known to be specific to the propagation of yeast and mold. Plates prepared using Sabourad-Dextrose Agar (SDA) were used to determine the fate of “desired” bacteria as SDA is specific for both yeast and lactic acid producing bacteria. Several serial dilutions (10^1 to 10^7) of heavy […] samples were prepared for the pour plates at 0 ppm (control), 10 ppm, 25 ppm, and 50 ppm (active) of octanoic acid, then agitated in a 100° F. shaking water bath for 4 hours. Plates were similarly prepared using the same samples after agitation for 24 hours. All plates were incubated at […]. for 4 days before performing measurements. In addition to inspecting the plates for microbial activity, aliquots of each sample (after 4 hours and after 24 hours) were examined under a microscope for visual speciation.

[1] = system: yeast and lactic acid producing bacteria; test: Pour-plate culture on Sabourad-Dextrose Agar (SDA); type: cell-based, lactobacillus; conditions: for Plate Showing activity, SDA: serial dilution
Procedure: as §1

[2] = system: gas-producing microorganisms in corn wet milling heavy steepwater; test: Flask Pressure Profile (gas production in heavy steepwater); type: cell-based, yeast; conditions: for Manometer readings: 100° F.
Procedure: All tests were conducted using heavy […] samples provided by a major U.S. corn wet milling facility. A Flask Pressure Profile method was developed and used to measure changes in gas production. The sample of heavy […] to an Erlenmeyer flask, then placed into a water bath at 100° F. and agitated slowly (30-40 rpm). The flask was connected to a U-tube manometer filled with distilled water. […] An increase in flask pressure indicated gas-producing microbial activity. Tests using octanoic acid were performed in […] ppm (control), 10 ppm, 25 ppm, and 50 ppm (active).

CCCCCCCC(=O)O [Octanoic Acid, Octanoic acid]
Effect on yeast (yeast and mold): selectively kills the yeast | Plate Showing activity, SDA ([1]; 10 ppm, sample incubation time 4 hrs): 10^2 | Plate Showing activity, SDA ([1]; 10 ppm, sample incubation time 24 hrs): 10^2 | Plate Showing activity, SDA ([1]; 25 ppm, sample incubation time 4 hrs): 10^1 | Plate Showing activity, SDA ([1]; 25 ppm, sample incubation time 24 hrs): 10^2 | Plate Showing activity, SDA ([1]; 50 ppm, sample incubation time 4 hrs): 10^2 | Plate Showing activity, SDA ([1]; 50 ppm, sample incubation time 24 hrs): 10^2 | Effect on activity of lactobacillus ([1]; test concentrations from 10-50 ppm, 4 hour and 24 hour incubations): do not measurably decrease the activity of lactobacillus | Manometer readings ([2]; 10 ppm, t = 0 hours): 0.0 in H2O and 0 in H2O | Manometer readings ([2]; 10 ppm, t = 1 hours): 0.0 in H2O | Manometer readings ([2]; 10 ppm, t = 1.5 hours): 0.0 in H2O | Manometer readings ([2]; 10 ppm, t = 2 hours): 0.0 in H2O | Manometer readings ([2]; 10 ppm, t = 2.5 hours): 0.0 in H2O | Manometer readings ([2]; 10 ppm, t = 3 hours): 0.0 in H2O | Manometer readings ([2]; 10 ppm, t = 3.5 hours): 0.0 in H2O | Manometer readings ([2]; 10 ppm, t = 4 hours): 0.0 in H2O | Manometer readings ([2]; 10 ppm, t = 4.5 hours): 0.0 in H2O | Manometer readings ([2]; 10 ppm, t = 5 hours): 0.0 in H2O | Manometer readings ([2]; 10 ppm, t = 5.5 hours): 0.0 in H2O | Manometer readings ([2]; 10 ppm, t = 6 hours): 0.0 in H2O | Manometer readings ([2]; 10 ppm, t = 6.5 hours): 0.0 in H2O | Manometer readings ([2]; 25 ppm, t = 0 hours): 0.0 in H2O | Manometer readings ([2]; 25 ppm, t = 0.5 hours): 0.25 in H2O | Manometer readings ([2]; 25 ppm, t = 1 hours): 0.0 in H2O | Manometer readings ([2]; 25 ppm, t = 1.5 hours): 0.0 in H2O | Manometer readings ([2]; 25 ppm, t = 2 hours): 0.0 in H2O | Manometer readings ([2]; 25 ppm, t = 2.5 hours): 0.0 in H2O | Manometer readings ([2]; 25 ppm, t = 3 hours): 0.0 in H2O | Manometer readings ([2]; 25 ppm, t = 3.5 hours): 0.0 in H2O | Manometer readings ([2]; 25 ppm, t = 4 hours): 0.0 in H2O | Manometer readings ([2]; 25 ppm, t = 4.5 hours): 0.0 in H2O | Manometer readings ([2]; 25 ppm, t = 5 hours): 0.0 in H2O | Manometer readings ([2]; 25 ppm, t = 5.5 hours): 0.0 in H2O | Manometer readings ([2]; 25 ppm, t = 6 hours): 0.0 in H2O | Manometer readings ([2]; 25 ppm, t = 6.5 hours): 0.0 in H2O | Manometer readings ([2]; 50 ppm, t = 0 hours): 0.0 in H2O | Manometer readings ([2]; 50 ppm, t = 0.5 hours): 0.0 in H2O | Manometer readings ([2]; 50 ppm, t = 1 hours): 0.0 in H2O | Manometer readings ([2]; 50 ppm, t = 1.5 hours): 0.0 in H2O | Manometer readings ([2]; 50 ppm, t = 2 hours): 0.0 in H2O | Manometer readings ([2]; 50 ppm, t = 2.5 hours): 0.0 in H2O | Manometer readings ([2]; 50 ppm, t = 3 hours): 0.0 in H2O | Manometer readings ([2]; 50 ppm, t = 3.5 hours): 0.0 in H2O | Manometer readings ([2]; 50 ppm, t = 4 hours): 0.0 in H2O | Manometer readings ([2]; 50 ppm, t = 4.5 hours): 0.0 in H2O | Manometer readings ([2]; 50 ppm, t = 5 hours): 0.0 in H2O | Manometer readings ([2]; 50 ppm, t = 5.5 hours): 0.0 in H2O | Manometer readings ([2]; 50 ppm, t = 6 hours): 0.0 in H2O | Manometer readings ([2]; 50 ppm, t = 6.5 hours): 0.0 in H2O | Effect on gas-producing microorganisms ([2]; all of the applied dosages (10, 25, 50 ppm), heavy steepwater): effectively reduces all gas-producing microorganisms
